# Values quoted from earlier work as cited in patent US12702640B2, “Drug implants containing enzalutamide and methods of use thereof” (The Regents of the University of California, priority 2021, dated 2026).
# Details: assuming 240 mg daily dose; systemic (e.g., oral) administration
compound,measurement,value
"CNC(=O)c1ccc(N2C(=S)N(c3ccc(C#N)c(C(F)(F)F)c3)C(=O)C2(C)C)cc1F [enzalutamide, Enzalutamide]",steady state blood plasma concentration,about 6 μg/ml
